# Measurements from patent publication US20180141962A1, “AZACARBAZOLE BTK INHIBITORS” (MERCK SHARP & DOHME CORP., priority 2015, published 2018).
# Read-outs that look alike come from different tables or passages of the source.
# Biological target: T1, BTK enzyme (recombinant full-length BTK, hBTK) (Homo sapiens, UniProt Q06187)
# T1 construct: recombinant protein from baculovirus-transfected Sf9 cells: full-length BTK, 6HIS-tag cleaved; 6HIS (cleaved yes); made in house; host or cells: baculovirus-transfected Sf9 cells
# Experiment: Btk enzyme activity assay, LANCE TR-FRET
# Type: biochemical
# Conditions: 50 pM hBTK, 2 μM biotin-A5-peptide, 25 μM ATP, 60 minute compound & enzyme incubation, 120 minutes reaction
# Procedure: Btk Enzyme Activity Assay Methods
# BTK enzymatic activity was determined with the LANCE (Lanthanide Chelate Excite) TR-FRET (lime-resolved fluorescence resonance energy transfer) assay. […] Phosphorylation reactions were allowed to proceed for 120 minutes. […] After 60 minutes incubation with detection reagents, reaction plates were read on a PerkinElmer EnVision plate reader using standard TR-FRET protocol. Briefly, excitation of donor molecules (Eu-chelate:anti-phospho-antibody) with a laser light source at 337 nm produces energy that can be transferred to Dylight-650 acceptor molecules if this donor:acceptor pair is within close proximity. Fluorescence intensity at both 665 nm (acceptor) and 615 nm (donor) are measured and a TR-FRET ratio calculated for each well (acceptor intensity/donor intensity). IC50 values were determined by 4 parameter robust fit of TR-FRET ratio values vs. (Log10) compound concentrations.
# [1] = read-out: BTK binding potency IC50
# T1 sequence (Q06187 whole entry): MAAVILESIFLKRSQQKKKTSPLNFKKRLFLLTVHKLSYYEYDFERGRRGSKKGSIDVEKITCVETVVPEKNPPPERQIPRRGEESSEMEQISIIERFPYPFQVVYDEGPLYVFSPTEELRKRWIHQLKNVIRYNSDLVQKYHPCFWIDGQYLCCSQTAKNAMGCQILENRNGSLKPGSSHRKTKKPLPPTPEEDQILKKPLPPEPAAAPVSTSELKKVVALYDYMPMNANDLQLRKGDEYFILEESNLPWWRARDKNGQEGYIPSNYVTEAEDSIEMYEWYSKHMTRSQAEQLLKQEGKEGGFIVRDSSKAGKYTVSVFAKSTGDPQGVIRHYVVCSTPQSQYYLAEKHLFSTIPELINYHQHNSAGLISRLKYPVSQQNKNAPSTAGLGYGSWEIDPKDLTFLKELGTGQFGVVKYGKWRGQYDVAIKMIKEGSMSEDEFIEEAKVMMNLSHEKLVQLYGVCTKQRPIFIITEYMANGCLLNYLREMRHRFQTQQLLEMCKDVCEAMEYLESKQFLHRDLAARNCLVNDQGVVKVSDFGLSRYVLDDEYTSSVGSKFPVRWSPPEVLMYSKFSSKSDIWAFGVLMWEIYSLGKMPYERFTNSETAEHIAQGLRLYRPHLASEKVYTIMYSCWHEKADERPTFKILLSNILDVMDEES
IC50 [1],IC50 (BTK binding potency IC50 (nM)),Structure (SMILES)
37.4 nM,–,"NC(=O)c1cnc(N2CCC3(CCNCC3)C2)c2c1[nH]c1ccccc12 [Example 15, 1-(2,8-diazaspiro[4.5]dec-2-yl)-5H-pyrido[4,3-b]indole-4-carboxamide]"
98.7 nM,–,"CC(C)(C)OC(=O)N1CC2(CCN(c3ncc(C(N)=O)c4[nH]c5ccccc5c34)CC2)C1 [Example 16, tert-butyl 7-(4-carbamoyl-5H-pyrido[4,3-b]indol-1-yl)-2,7-diazaspiro[3.5]nonane-2-carboxylate]"
117 nM,–,"NC(=O)c1cnc(N2CCC[C@@]3(C2)C(=O)NC[C@@H]3O)c2c1[nH]c1ccccc12 [Example 18, 1-[(4R,5S)-4-hydroxy-1-oxo-2,7-diazaspiro[4.5]dec-7-yl]-5H-pyrido[4,3-b]indole-4-carboxamide]"
22 nM,–,"NC(=O)c1cnc(N2CCC3(CC2)CNC3)c2c1[nH]c1ccccc12 [Example 19, 1-(2,7-diazaspiro[3.5]non-7-yl)-5H-pyrido[4,3-b]indole-4-carboxamide]"
58.6 nM,–,"CC(=O)N1CC2(CCN(c3ncc(C(N)=O)c4[nH]c5ccccc5c34)CC2)C1 [Example 20, 1-(2-acetyl-2,7-diazaspiro[3.5]non-7-yl)-5H-pyrido[4,3-b]indole-4-carboxamide]"
435 nM,–,"CC(C)(C)OC(=O)N1CCC2(C1)CN(c1ncc(C(N)=O)c3[nH]c4ccccc4c13)C2 [Example 21, tert-butyl 2-(4-carbamoyl-5H-pyrido[4,3-b]indol-1-yl)-2,6-diazaspiro[3.4]octane-6-carboxylate]"
9 nM,–,"NC(=O)c1cnc(N2CCC[C@]3(C2)C(=O)NC[C@@H]3O)c2c1[nH]c1ccccc12 [Example 24, 1-[(4R,5R)-4-hydroxy-1-oxo-2,7-diazaspiro[4.5]dec-7-yl]-5H-pyrido[4,3-b]indole-4-carboxamide]"
536 nM,–,"CC(C)(C)c1ccc(C(=O)N2CCCC3(CCCCN3c3ncc(C(N)=O)c4[nH]c5ccccc5c34)C2)cc1 (stereo not drawn) [Example 25, 1-{8-[(4-tert-butylphenyl)carbonyl]-1,8-diazaspiro[5.5]undec-1-yl}-5H-pyrido[4,3-b]indole-4-carboxamide]"
160 nM,–,"NC(=O)c1cnc(N2CC3(CCNC3)C2)c2c1[nH]c1ccccc12 [Example 26, 1-(2,6-diazaspiro[3.4]oct-2-yl)-5H-pyrido[4,3-b]indole-4-carboxamide]"
232 nM,–,"CC(=O)N1CCC2(C1)CN(c1ncc(C(N)=O)c3[nH]c4ccccc4c13)C2 [Example 27, 1-(6-acetyl-2,6-diazaspiro[3.4]oct-2-yl)-5H-pyrido[4,3-b]indole-4-carboxamide]"
579 nM,–,"CC(C)(C)OC(=O)N1CC2(CCCN(c3ncc(C(N)=O)c4[nH]c5ccccc5c34)C2)C1 [Example 28, tert-butyl 6-(4-carbamoyl-5H-pyrido[4,3-b]indol-1-yl)-2,6-diazaspiro[3.5]nonane-2-carboxylate]"
271 nM,–,"CC(=O)N1CC2(CCCN(c3ncc(C(N)=O)c4[nH]c5ccccc5c34)C2)C1 [Example 29, 1-(2-acetyl-2,6-diazaspiro[3.5]non-6-yl)-5H-pyrido[4,3-b]indole-4-carboxamide]"
28 nM,–,"NC(=O)c1cnc(N2CCCC3(CCCNC3=O)C2)c2c1[nH]c1ccccc12 (stereo not drawn) [Example 30, 1-(7-oxo-2,8-diazaspiro[5.5]undec-2-yl)-5H-pyrido[4,3-b]indole-4-carboxamide]"
96.8 nM,–,"COC(=O)CCN1CCCC2(CCCN(c3ncc(C(N)=O)c4[nH]c5ccccc5c34)C2)C1=O (stereo not drawn) [Example 31, methyl 3-[8-(4-carbamoyl-5H-pyrido[4,3-b]indol-1-yl)-1-oxo-2,8-diazaspiro[5.5]undec-2-yl]propanoate]"
244 nM,–,"NC(=O)c1cnc(N2CCCC3(CCN(c4ccc(F)cc4)C3=O)C2)c2c1[nH]c1ccccc12 (stereo not drawn) [Example 32, 1-[2-(4-fluorophenyl)-1-oxo-2,7-diazaspiro[4.5]dec-7-yl]-5H-pyrido[4,3-b]indole-4-carboxamide]"
212 nM,–,"NC(=O)c1cnc(N2CCC3(CCCN(c4ccc(F)cc4)C3=O)C2)c2c1[nH]c1ccccc12 (stereo not drawn) [Example 33, 1-[7-(4-fluorophenyl)-6-oxo-2,7-diazaspiro[4.5]dec-2-yl]-5H-pyrido[4,3-b]indole-4-carboxamide]"
–,17.2 nM,"NC(=O)c1cnc(N2CCCC3(CCNC3=O)C2)c2c1[nH]c1ccccc12 (stereo not drawn) [Example 34, 1-(1-oxo-2,7-diazaspiro[4.5]dec-7-yl)-5H-pyrido[4,3-b]indole-4-carboxamide]"
55.2 nM,–,"CN1CCCC2(CCCN(c3ncc(C(N)=O)c4[nH]c5ccccc5c34)C2)C1=O (stereo not drawn) [Example 35, 1-(8-methyl-7-oxo-2,8-diazaspiro[5.5]undec-2-yl)-5H-pyrido[4,3-b]indole-4-carboxamide]"
9530 nM,–,"CC(C)(C)c1ccc(N2CCC3(CCCN(c4ncc(C(N)=O)c5[nH]c6ccccc6c45)C3)C2=O)cc1 (stereo not drawn) [Example 36, 1-[2-(4-tert-butylphenyl)-1-oxo-2,7-diazaspiro[4.5]dec-7-yl]-5H-pyrido[4,3-b]indole-4-carboxamide]"
46.4 nM,–,"NC(=O)c1cnc(N2CCCC3(CCNC(=O)C3)C2)c2c1[nH]c1ccccc12 (stereo not drawn) [Example 37, 1-(8-oxo-2,9-diazaspiro[5.5]undec-2-yl)-5H-pyrido[4,3-b]indole-4-carboxamide]"
420 nM,–,"CC(C)(C)c1ccc(N2CCC3(CCCN(c4ncc(C(N)=O)c5[nH]c6ccccc6c45)C3)CC2=O)cc1 (stereo not drawn) [Example 38, 1-[9-(4-tert-butylphenyl)-8-oxo-2,9-diazaspiro[5.5]undec-2-yl]-5H-pyrido[4,3-b]indole-4-carboxamide]"
120 nM,–,"CC(C)N1CCCC2(CCCN(c3ncc(C(N)=O)c4[nH]c5ccccc5c34)C2)C1=O (stereo not drawn) [Example 39, 1-[8-(1-methylethyl)-7-oxo-2,8-diazaspiro[5.5]undec-2-yl]-5H-pyrido[4,3-b]indole-4-carboxamide]"
1.4 nM,–,"NC(=O)c1cnc(N2CCCC3(CCNC3=O)C2)c2c1[nH]c1cc(C3CCNCC3)ccc12 (stereo not drawn) [Example 42, 1-(1-oxo-2,7-diazaspiro[4.5]decan-7-yl)-7-(piperidin-4-yl)-5H-pyrido[4,3-b]indole-4-carboxamide]"
7.4 nM,–,"CC(C)(C)OC(=O)N1CCC(c2ccc3c(c2)[nH]c2c(C(N)=O)cnc(N4CCCC5(CCNC5=O)C4)c23)CC1 (stereo not drawn) [Example 43, tert-butyl 4-[4-carbamoyl-1-(1-oxo-2,7-diazaspiro[4.5]dec-7-yl)-5H-pyrido[4,3-b]indol-7-yl]piperidine-1-carboxylate]"
1.6 nM,–,"NC(=O)c1cnc(N2CCCC3(CCNC3=O)C2)c2c1[nH]c1cc(C3CCCNC3)ccc12 (stereo not drawn) [Example 44, 1-(1-oxo-2,7-diazaspiro[4.5]dec-7-yl)-7-piperidin-3-yl-5H-pyrido[4,3-b]indole-4-carboxamide]"
204 nM,–,"NC(=O)c1cnc(N2CCCC3(CCNC3=O)C2)c2c1[nH]c1ccc(C3CCNCC3)cc12 (stereo not drawn) [Example 45, 1-(1-oxo-2,7-diazaspiro[4.5]dec-7-yl)-8-piperidin-4-yl-5H-pyrido[4,3-b]indole-4-carboxamide]"
377 nM,–,"CC(C)(C)OC(=O)N1CCC(c2ccc3[nH]c4c(C(N)=O)cnc(N5CCCC6(CCNC6=O)C5)c4c3c2)CC1 (stereo not drawn) [Example 46, tert-butyl 4-[4-carbamoyl-1-(1-oxo-2,7-diazaspiro[4.5]dec-7-yl)-5H-pyrido[4,3-b]indol-8-yl]piperidine-1-carboxylate]"
